In patent US4731486A, “Hydroformylation using low volatile phosphine ligands” (Union Carbide Corporation, priority 1986, dated 1988):
Counter-ions that a name gives are not always drawn.

Columns and labels:
[1] = Batch hydroformylation of propylene in stirred autoclave (Examples 1, 2, 11, 14, 19); conditions: 100° C., 90 psia 1:1:1 H2:CO:C3H6
Method: A series of various rhodium complex catalyst precursor solutions consisting essentially of the solubilized reaction product of rhodium dicarbonyl acetylacetonate and various monosulfonated triphenylphosphine metal salt ligands were prepared and employed to hydroformylate propylene into C4 aldehydes in the following manner.
Each rhodium catalytic precursor solution so prepared was then employed to hydroformylate propylene in a magnetically stirred, 100 mL capacity, stainless steel autoclave which was attached to a gas manifold for introducing gases to the desired partial pressures. The autoclave was also equipped with a pressure calibrator for determining reaction pressure to ±0.01 psia. and a platinum resistance thermometer for determining reactor solution temperatures to ±0.10° C. The reactor was heated externally by two 300 watt heating bands. The reactor solution temperature was controlled by a platinum resistance sensor connected to an external proportional temperature controller for controlling the temperature of the external band heaters.
In each non-aqueous hydroformylation reaction, about 15 milliliters (about 14 grams) of the rhodium catalytic precursor solution so prepared was charged to the autoclave reactor under nitrogen and heated to the reaction temperature employed (as given in Table 1 below). The reactor was then vented down to 5 psig. and a premixed gas mixture of 1:1:1 carbon monoxide:hydrogen:propylene was introduced into the reactor via the gas manifold (partial pressures given in Table 1) and the propylene so hydroformylated.
A comparison of the catalytic activity of aqueous and non-aqueous solutions of monosulfonated triphenylphosphine sodium salt ligand promoted catalysts in hydroformylating various molecular weight alphe-olefins was determined as follows.
Both the aqueous and non-aqueous hydroformylation reactions were conducted under identical conditions with regard to temperature, rhodium and ligand concentration, hydrogen and carbon monoxide partial pressure and olefin concentration.

[2] = Continuous single pass hydroformylation of butene-1 (Examples 3, 4, 5, 7, 12)
Method: Continuous hydroformylation of butene-1 a monosulfonated triphenylphosphine metal salt ligand was conducted in the following manner.
The non-aqueous hydroformylation was conducted in a glass reactor operating in a continuous single pass butene-1 hydroformylation mode. The reactor consisted of a three-ounce pressure bottle submersed in an oil bath with a lass front for viewing. About 20-mL of a freshly prepared rhodium catalytic precursor solution was charged to the reactor with a syringe, after purging the system with nitrogen. […] After closing the reactor, the system was again purged with nitrogen and the oil bath was heated to furnish the desired hydroformylation reaction temperature. The hydroformylation reaction was conducted at a total gas pressure of about 160 psig., the partial pressures of hydrogen, carbon monoxide, and butene-1 being given in Table 3 below, the remainder being nitrogen and aldehyde product.
The flows of the feed gases (carbon monoxide, hydrogen, butene-1 and nitrogen) were controlled individually with mass flow meters and the feed gases dispersed into the precursor solution via microporous stainless steel spargers. The unreacted portion of the feed gases was stripped out with the product C5 aldehydes and the outlet gas analyzed over about 12 days of continuous operation.

[3] = Solubility of metal salt ligands in nonanal with added solubilizing agent; type: physicochemical; conditions: 25° C., nonanal with 1:4 CARBOWAX TPEG-900/TERGITOL NP-9
[4] = Texanol, 240 ppm Rhodium, about 14 mole equivalents ligand (0.9 wt. %)
[5] = Texanol/PEG-600 20:1, day 0.9, 101 °C, CO 20, H2 59, C4H8 20 psia
[6] = Texanol/PEG-600 20:1, day 1.7, 101 °C, CO 19, H2 55, C4H8 18 psia
[7] = Texanol/PEG-600 20:1, day 5.0, 101 °C, CO 16, H2 47, C4H8 36 psia
[8] = Texanol/PEG-600 20:1, day 5.9, 101 °C, CO 17, H2 51, C4H8 29 psia
[9] = Texanol/PEG-600 20:1, day 7.0, 101 °C, CO 13, H2 43, C4H8 50 psia
[10] = Texanol/PEG-600 20:1, day 8.0, 101 °C, CO 17, H2 41, C4H8 36 psia
[11] = Texanol/PEG-600 20:1, day 9.0, […], CO 17, H2 36, C4H8 52 psia
[12] = Texanol/PEG-600 20:1, day 10.0, […], CO 18, H2 30, C4H8 56 psia
[13] = Texanol/PEG-600 20:1, day 11.8, […], CO 17, H2 29, C4H8 63 psia
[14] = Texanol/PEG-600 20:1, day 11.9 (so in the source), […], CO 17, H2 29, C4H8 59 psia
[15] = Texanol/PEG-600 20:1, day 12.6, 103 °C, CO 18, H2 29, C4H8 61 psia
[16] = 200 ppm Rh, about 120 mole equivalents ligand, Texanol/Carbowax PEG-600: Li 100:0, K 9:1, Rb 8:1, Cs 7:1, Ca 20:1, Ba 7:1, Sr 18:1
[17] = Texanol, day 0.8, 80 °C, CO 40, H2 39, C4H8 3 psia
[18] = Texanol, day 1.9, 80 °C, CO 38, H2 41, C4H8 4 psia
[19] = Texanol, day 2.8, 80 °C, CO 39, H2 41, C4H8 3 psia
[20] = Texanol, day 3.9, 80 °C, CO 38, H2 42, C4H8 4 psia
[21] = Texanol, day 5.0, 80 °C, CO 38, H2 42, C4H8 4 psia
[22] = Texanol, day 5.8, 80 °C, CO 38, H2 42, C4H8 5 psia
[23] = Texanol, day 6.8, 80 °C, CO 38, H2 43, C4H8 4 psia
[24] = Texanol, day 7.8, 80 °C, CO 38, H2 44, C4H8 5 psia
[25] = Texanol, day 9.0, 80 °C, CO 39, H2 43, C4H8 5 psia
[26] = Texanol, day 10.0, 80 °C, CO 42, H2 38, C4H8 6 psia
[27] = Texanol, day 10.9, 80 °C, CO 41, H2 39, C4H8 6 psia
[28] = Texanol, day 11.0 (so in the source), 80 °C, CO 41, H2 39, C4H8 6 psia
[29] = Texanol, day 12.9, 80 °C, CO 41, H2 39, C4H8 5 psia

O=S(=O)(O)c1cccc(P(c2ccccc2)C2CCCCC2)c1 (stereo not drawn) [CHDPPMS-Na, monosulfonated cyclohexyldiphenylphosphine sodium salt]
Linear/Branched Aldehyde Mole Ratio [1, 4]: 1.6 | Reaction Rate (C4 aldehydes) [1, 4]: 0.32 G moles/L/hr

O=S(=O)(O)c1cccc(P(c2ccccc2)c2ccccc2)c1 [Ca^++, monosulfonated triphenylphosphine calcium salt]
Linear/Branched Aldehyde Mole Ratio ([1]; 200 ppm Rh, about 120 mole equivalents ligand, Texanol/Carbowax PEG-600: Li 100:0, K 9:1, Rb 8:1, Ca 20:1, Ba 7:1, calcium salt): 4.7 | Reaction Rate (C4 aldehydes) ([1]; 200 ppm Rh, about 120 mole equivalents ligand, Texanol/Carbowax PEG-600: Li 100:0, K 9:1, Rb 8:1, Cs 7:1, Ca 20:1, Ba 7:1, Sr 18:1, calcium salt): 0.51 Gmoles/L/Hr | Linear/Branched Aldehyde Mole Ratio [2, 5]: 12.84 | Rate (C5 aldehydes), daily average [2, 5]: 1.27 gmoles/L/Hr | Linear/Branched Aldehyde Mole Ratio [2, 6]: 14.44 | Rate (C5 aldehydes), daily average [2, 6]: 1.38 gmoles/L/Hr | Linear/Branched Aldehyde Mole Ratio [2, 7]: 13.06 | Rate (C5 aldehydes), daily average [2, 7]: 1.62 gmoles/L/Hr | Linear/Branched Aldehyde Mole Ratio [2, 8]: 17.67 | Rate (C5 aldehydes), daily average [2, 8]: 1.64 gmoles/L/Hr | Linear/Branched Aldehyde Mole Ratio [2, 9]: 20.95 | Rate (C5 aldehydes), daily average [2, 9]: 1.85 gmoles/L/Hr | Linear/Branched Aldehyde Mole Ratio [2, 10]: 18.76 | Rate (C5 aldehydes), daily average [2, 10]: 2.09 gmoles/L/Hr | Linear/Branched Aldehyde Mole Ratio [2, 11]: 18.38 | Rate (C5 aldehydes), daily average [2, 11]: 2.19 gmoles/L/Hr | Linear/Branched Aldehyde Mole Ratio [2, 12]: 20.52 | Rate (C5 aldehydes), daily average [2, 12]: 1.40 gmoles/L/Hr | Linear/Branched Aldehyde Mole Ratio [2, 13]: 18.90 | Rate (C5 aldehydes), daily average [2, 13]: 1.51 gmoles/L/Hr | Linear/Branched Aldehyde Mole Ratio [2, 14]: 21.86 | Rate (C5 aldehydes), daily average [2, 14]: 1.62 gmoles/L/Hr | Linear/Branched Aldehyde Mole Ratio [2, 15]: 28.03 | Rate (C5 aldehydes), daily average [2, 15]: 1.83 gmoles/L/Hr | Metal Salt Solubility ([3]; calcium salt): 18 Wt. %

O=S(=O)(O)c1cccc(P(c2ccccc2)c2ccccc2)c1 [Cs^+]
Reaction Rate (C4 aldehydes) [1, 16]: Declining Rate | Metal Salt Solubility [3]: > 10 Wt. %

O=S(=O)(O)c1cccc(P(C2CCCCC2)C2CCCCC2)c1 [DCHPPMS-Na, monosulfonated dicyclohexylphenylphosphine sodium salt]
Linear/Branched Aldehyde Mole Ratio [1, 4]: 1.2 | Reaction Rate (C4 aldehydes) [1, 4]: 0.78 G moles/L/hr | Linear/Branched Aldehyde Mole Ratio [2, 17]: 1.86 | Rate (C5 aldehydes), daily average [2, 17]: 0.86 gmoles/L/Hr | Linear/Branched Aldehyde Mole Ratio [2, 18]: 1.88 | Rate (C5 aldehydes), daily average [2, 18]: 1.02 gmoles/L/Hr | Linear/Branched Aldehyde Mole Ratio [2, 19]: 1.99 | Rate (C5 aldehydes), daily average [2, 19]: 0.87 gmoles/L/Hr | Linear/Branched Aldehyde Mole Ratio [2, 20]: 1.84 | Rate (C5 aldehydes), daily average [2, 20]: 0.85 gmoles/L/Hr | Linear/Branched Aldehyde Mole Ratio [2, 21]: 1.83 | Rate (C5 aldehydes), daily average [2, 21]: 0.88 gmoles/L/Hr | Linear/Branched Aldehyde Mole Ratio [2, 22]: 1.79 | Rate (C5 aldehydes), daily average [2, 22]: 0.86 gmoles/L/Hr | Linear/Branched Aldehyde Mole Ratio [2, 23]: 1.95 | Rate (C5 aldehydes), daily average [2, 23]: 0.80 gmoles/L/Hr | Linear/Branched Aldehyde Mole Ratio [2, 24]: 1.78 | Rate (C5 aldehydes), daily average [2, 24]: 0.86 gmoles/L/Hr | Linear/Branched Aldehyde Mole Ratio [2, 25]: 1.75 | Rate (C5 aldehydes), daily average [2, 25]: 0.72 gmoles/L/Hr | Linear/Branched Aldehyde Mole Ratio [2, 26]: 1.79 | Rate (C5 aldehydes), daily average [2, 26]: 0.94 gmoles/L/Hr | Linear/Branched Aldehyde Mole Ratio [2, 27]: 1.89 | Rate (C5 aldehydes), daily average [2, 27]: 0.95 gmoles/L/Hr | Linear/Branched Aldehyde Mole Ratio [2, 28]: 1.92 | Rate (C5 aldehydes), daily average [2, 28]: 0.99 gmoles/L/Hr | Linear/Branched Aldehyde Mole Ratio [2, 29]: 1.77 | Rate (C5 aldehydes), daily average [2, 29]: 0.95 gmoles/L/Hr

O=S(=O)(O)c1cccc(P(c2ccccc2)c2ccccc2)c1 [K^+]
Linear/Branched Aldehyde Mole Ratio ([1]; 200 ppm Rh, about 120 mole equivalents ligand, Texanol/Carbowax PEG-600: Li 100:0, K 9:1, Rb 8:1, Ca 20:1, Ba 7:1): 5.1 | Reaction Rate (C4 aldehydes) [1, 16]: 0.87 Gmoles/L/Hr

O=S(=O)(O)c1cccc(P(c2ccccc2)c2ccccc2)c1 [Sr^++]
Reaction Rate (C4 aldehydes) [1, 16]: No Rate
